According to patent US9845322B2 (Hoffmann-La Roche Inc., priority 2016, dated 2017):

test system: HBsAg secretion in HepG2.2.15 cells; assay: HBsAg assay (chemiluminescence immunoassay of secreted HBsAg in culture supernatant); assay type: cell-based, HBV; conditions: HepG2.2.15 cells; concentration at which HBsAg secretion was reduced by 50% compared to the no drug control; read-out: IC50 (HBsAg assay)
Experimental: HepG2.2.15 cells (Acs et al. Proc Natl Acad Sci USA, 84, (1987), 4641-4), a constitutively HBV-expressing cell line were cultured in DMEM+Glutamax-I medium (Invitrogen, Carlsbad, Calif., USA), supplemented with 10% fetal bovine serum (Invitrogen) and G418 (Invitrogen) at a final concentration of 200 mg/L and maintained in 5% CO2 at 37° C.
HepG2.2.15 cells were seeded in duplicate into white, 96-well plates at 1.5×10^4 cells/well. The cells were treated with a three-fold serial dilution series of the compounds in DMSO. The final DMSO concentration in all wells was 1% and DMSO was used as no drug control.
The HBsAg chemiluminescence immunoassay (CLIA) kit (Autobio Diagnostics Co., Zhengzhou, China, Catalog number: CL0310-2) was used to measure the levels of secreted HBV antigens semi-quantitatively. For the detection 50 μL/well culture supernatant was used and HBsAg was quantified using HBsAg chemiluminescence immunoassay (CLIA) kit (Autobio Diagnostics Co., Zhengzhou, China, Catalog number: CL0310-2), 50 μL of the supernatant was transferred to the CLIA assay plate and 50 μL of enzyme conjugate reagent was added into each well. The plates were sealed and gently agitated for 1 hour at room temperature. The supernatant-enzyme-mixture was discarded and wells were washed 6 times with 300 μL of PBS. The residual liquid was removed by plating the CLIA plate […] on absorbent tissue paper. 25 μL of substrates A and B were added to each well. Luminance was measured using a luminometer (Mithras LB 940 Multimode Microplate Reader) after 10 minutes incubation. Dose-response curves were generated and the IC50 value was extrapolated by using the E-WorkBook Suite (ID Business Solutions Ltd., Guildford, UK). The IC50 was defined as the compound concentration (or conditioned media log dilution) at which HBsAg secretion was reduced by 50% compared to the no drug control.
The compounds according to formula I were tested for their capacity to inhibit HBsAg as described herein.

| Structure (SMILES) | IC50 [nM] |
| --- | --- |
| CC1c2cnc(-c3ncccn3)nc2CCN1c1cc(F)c(F)c(OCC(N)=O)c1 (single isomer, unassigned; (-)) [Example 68, (−)-2-[2,3-difluoro-5-[5-methyl-2-pyrimidin-2-yl-7,8-dihydro-5H-pyrido[4,3-d]pyrimidin-6-yl]phenoxy]acetamide] | 74 |
| COc1cc(F)nc(N2CCc3nc(-c4ncccn4)ncc3C2C)c1 (single isomer, unassigned; (-)) [Example 138, (−)-6-(6-fluoro-4-methoxy-2-pyridyl)-5-methyl-2-pyrimidin-2-yl-7,8-dihydro-5H-pyrido[4,3-d]pyrimidine] | 11 |
| CC1c2cnc(-c3ncccn3)nc2CCN1c1cc(F)cc(N(C)C)n1 (single isomer, unassigned; (-)) [Example 205, (−)-4-fluoro-N,N-dimethyl-6-[5-methyl-2-pyrimidin-2-yl-7,8-dihydro-5H-pyrido[4,3-d]pyrimidin-6-yl]pyridin-2-amine] | 5 |
| CC1c2cnc(-c3ncccn3)nc2CCN1c1cc(F)cc(N2CCNC(=O)C2)n1 (single isomer, unassigned; (-)) [Example 225, (−)-4-[4-fluoro-6-(5-methyl-2-pyrimidin-2-yl-7,8-dihydro-5H-pyrido[4,3-d]pyrimidin-6-yl)-2-pyridyl]piperazin-2-one] | 13 |
| CC1c2cnc(-c3ccccn3)nc2CCN1c1ccc([N+](=O)[O-])cc1 (stereo not drawn) [Example 1, 5-methyl-6-(4-nitrophenyl)-2-(2-pyridyl)-7,8-dihydro-5H-pyrido[4,3-d]pyrimidine] | 186 |
| COc1cc(N2CCc3nc(-c4ccccn4)ncc3C2C)cc(F)c1F (stereo not drawn) [Example 5, 6-(3,4-difluoro-5-methoxy-phenyl)-5-methyl-2-(2-pyridyl)-7,8-dihydro-5H-pyrido[4,3-d]pyrimidine] | 38 |
| CCC1c2cnc(-c3ccccn3)nc2CCN1c1cc(F)c(F)c(OC)c1 (stereo not drawn) [Example 9, 6-(3,4-difluoro-5-methoxy-phenyl)-5-ethyl-2-(2-pyridyl)-7,8-dihydro-5H-pyrido[4,3-d]pyrimidine] | 183 |
| CCCC1c2cnc(-c3ccccn3)nc2CCN1c1cc(F)c(F)c(OC)c1 (stereo not drawn) [Example 12, 6-(3,4-difluoro-5-methoxy-phenyl)-5-propyl-2-(2-pyridyl)-7,8-dihydro-5H-pyrido[4,3-d]pyrimidine] | 7490 |
| COc1cc(N2CCc3nc(-c4ncccn4)ncc3C2C)cc(F)c1F (stereo not drawn) [Example 15, 6-(3,4-difluoro-5-methoxy-phenyl)-5-methyl-2-pyrimidin-2-yl-7,8-dihydro-5H-pyrido[4,3-d]pyrimidine] | 15 |

same assay, conditions: Hepatitis B virus, HepG2.2.15, HepG2.2.15 cells; concentration at which HBsAg secretion was reduced by 50% compared to the no drug control; read-out: IC50 (HBsAg assay)

| Structure (SMILES) | IC50 [nM] |
| --- | --- |
| COc1cc(F)c(Cl)c(N2CCc3nc(-c4ncccn4)ncc3C2C)c1 (single isomer, unassigned; (-)) [Example 130, (−)-6-(2-chloro-3-fluoro-5-methoxy-phenyl)-5-methyl-2-pyrimidin-2-yl-7,8-dihydro-5H-pyrido[4,3-d]pyrimidine] | 679 |
| COc1cc(F)cc(N2CCc3nc(-c4ncccn4)ncc3C2C)c1Cl (single isomer, unassigned; (-)) [Example 131, (−)-6-(2-chloro-5-fluoro-3-methoxy-phenyl)-5-methyl-2-pyrimidin-2-yl-7,8-dihydro-5H-pyrido[4,3-d]pyrimidine] | 2 |
| COc1cc(N2CCc3nc(-c4ncccn4)ncc3C2C)nc(F)c1Cl (single isomer, unassigned; (-)) [Example 146, (−)-6-(5-chloro-6-fluoro-4-methoxy-2-pyridyl)-5-methyl-2-pyrimidin-2-yl-7,8-dihydro-5H-pyrido[4,3-d]pyrimidine] | 2 |
| COc1cc(F)nc(N2CCc3nc(-c4ncccn4)ncc3C2C)c1Cl (single isomer, unassigned; (-)) [Example 147, (−)-6-(3-chloro-6-fluoro-4-methoxy-2-pyridyl)-5-methyl-2-pyrimidin-2-yl-7,8-dihydro-5H-pyrido[4,3-d]pyrimidine] | 21 |
| CC1c2cnc(-c3ncccn3)nc2CCN1c1cc(OCCCCCCC(=O)O)cc(F)n1 (single isomer, unassigned; (-)) [Example 155, (−)-7-[[2-fluoro-6-[5-methyl-2-pyrimidin-2-yl-7,8-dihydro-5H-pyrido[4,3-d]pyrimidin-6-yl]-4-pyridyl]oxy]heptanoic acid] | 12 |
| CC1c2cnc(-c3ncccn3)nc2CCN1c1cc(OCCCCCCC(N)=O)cc(F)n1 (single isomer, unassigned; (-)) [Example 156, (−)-7-[[2-fluoro-6-[5-methyl-2-pyrimidin-2-yl-7,8-dihydro-5H-pyrido[4,3-d]pyrimidin-6-yl]-4-pyridyl]oxy]heptanamide] | 6 |
| CC1c2cnc(-c3ncccn3)nc2CCN1c1cc(OCCCCC(=O)O)cc(F)n1 (single isomer, unassigned; (-)) [Example 157, (−)-5-[[2-fluoro-6-[5-methyl-2-pyrimidin-2-yl-7,8-dihydro-5H-pyrido[4,3-d]pyrimidin-6-yl]-4-pyridyl]oxy]pentanoic acid] | 47 |
| CC1c2cnc(-c3ncccn3)nc2CCN1c1cc(OCCCCCC(=O)O)cc(F)n1 (single isomer, unassigned; (-)) [Example 164, (−)-6-[[2-fluoro-6-[5-methyl-2-pyrimidin-2-yl-7,8-dihydro-5H-pyrido[4,3-d]pyrimidin-6-yl]-4-pyridyl]oxy]hexanoic acid] | 22 |
| CC1c2cnc(-c3ncccn3)nc2CCN1c1cc(OCCCN2CCOCC2=O)cc(F)n1 (single isomer, unassigned; (-)) [Example 181, (−)-4-[3-[[2-fluoro-6-[5-methyl-2-pyrimidin-2-yl-7,8-dihydro-5H-pyrido[4,3-d]pyrimidin-6-yl]-4-pyridyl]oxy]propyl]morpholin-3-one] | 12 |
| CC1c2cnc(-c3ncccn3)nc2CCN1c1cc(OCCCC(=O)O)cc(F)n1 (single isomer, unassigned; (-)) [Example 184, (−)-4-[[2-fluoro-6-[5-methyl-2-pyrimidin-2-yl-7,8-dihydro-5H-pyrido[4,3-d]pyrimidin-6-yl]-4-pyridyl]oxy]butanoic acid] | 182 |
| CC1c2cnc(-c3ncccn3)nc2CCN1c1cc(OCCCC(N)=O)cc(F)n1 (single isomer, unassigned; (-)) [Example 185, (−)-4-[[2-fluoro-6-[5-methyl-2-pyrimidin-2-yl-7,8-dihydro-5H-pyrido[4,3-d]pyrimidin-6-yl]-4-pyridyl]oxy]butanamide] | 14 |
| CCC1c2cnc(-c3ccccn3)nc2CCN1c1ccc(S(C)(=O)=O)cc1 (stereo not drawn) [Example 4, 5-ethyl-6-(4-methylsulfonylphenyl)-2-(2-pyridyl)-7,8-dihydro-5H-pyrido[4,3-d]pyrimidine] | 1920 |
| COC(=O)C(C(=O)OC)C1c2cnc(-c3ccccn3)nc2CCN1c1ccc(S(C)(=O)=O)cc1 (stereo not drawn) [Example 8] | 19600 |
| COc1cc(N2CCc3nc(-c4ccccn4)ncc3C2C2CC2)cc(F)c1F (stereo not drawn) [Example 18] | 363 |

same assay, conditions: Hepatitis B virus, HepG2.2.15, read-out: IC50 (HBsAg assay)

| Structure (SMILES) | IC50 [nM] |
| --- | --- |
| CC1c2cnc(-c3ncccn3)nc2CCN1c1cc(OCCCCC(N)=O)cc(F)n1 (single isomer, unassigned; (-)) [Example 158, (−)-5-[[2-fluoro-6-[5-methyl-2-pyrimidin-2-yl-7,8-dihydro-5H-pyrido[4,3-d]pyrimidin-6-yl]-4-pyridyl]oxy]pentanamide] | 16 |
